From patent EP1448559B1, “5-(4-(2-(N-METHYL-N-(2-PYRIDYL)AMINO)ETHOXY)BENZYL)THIAZOLIDINE-2,4-DIONE BENZENESULFONATE; PROCESS FOR ITS PREPARATION; POLYMORPHS I, II AND III THEREOF; AND ITS USE AS PHARMACEUTICAL ACTIVE INGREDIENT” (SMITHKLINE BEECHAM PLC, priority 2001, dated 2003)

Test: Solubility in water (visual, confirmed by HPLC assay of a saturated solution)

SMILES | solubility (water added in aliquots from 1 to 1000ml to approximately 100mg of drug substance, confirmed by HPLC assay of a saturated solution) [mg/mL] | solubility (water) [mg/mL]
CN(CCOc1ccc(CC2SC(=O)NC2=O)cc1)c1ccccn1 (centres unmarked) [Benzenesulfonate Form II, 5-[4-[2-(N-Methyl-N-(2-pyridyl)amino)ethoxy]benzyl]thiazolidine-2,4-dione benzenesulfonate Form II] | 1.4 | 
CN(CCOc1ccc(CC2SC(=O)NC2=O)cc1)c1ccccn1 (centres unmarked) [Benzenesulfonate propan-2-ol solvate, 5-[4-[2-(N-Methyl-N-(2-pyridyl)amino)ethoxy]benzyl]thiazolidine-2,4-dione benzenesulfonate propan-2-ol solvate] |  | 1.6
